Consider 24 compounds from patent publication US9682991B2, “Tricyclic compounds for use as kinase inhibitors” (FUNDACIÓN CENTRO NACIONAL DE INVESTIGACIONES ONCOLOGICAS …, priority 2009, dated 2017).

For assay [1], the target named is PIM-1 (Homo sapiens (Human), UniProt P11309). Description: PIM-1 biochemical assay (ADP Hunter).
For assay [2], the target named is PIM-3 (Homo sapiens (Human), UniProt Q86V86). As to the kind of experiment: PIM-3 biochemical assay (ADP Hunter). To be noted: semi-quantitative; read-out: PIM3 IC50.
Assay [3] deals with PIM-2 (Homo sapiens (Human), UniProt Q9P1W9). Description: PIM-2 biochemical assay (ADP Hunter). Particulars: semi-quantitative; read-out: PIM2 IC50. From the text: The biochemical assay to measure PIM-2 activity relies on the ADP Hunter assay kit (DiscoveRx Corp., Cat. #90-0077), that determines the amount of ADP as direct product of the kinase enzyme activity.
Setting [4] is: read-out: PIM1 IC50, semi-quantitative.

Like-named read-outs stand apart in the source and are kept apart here.

Chain of PIM-1 (P11309 whole entry): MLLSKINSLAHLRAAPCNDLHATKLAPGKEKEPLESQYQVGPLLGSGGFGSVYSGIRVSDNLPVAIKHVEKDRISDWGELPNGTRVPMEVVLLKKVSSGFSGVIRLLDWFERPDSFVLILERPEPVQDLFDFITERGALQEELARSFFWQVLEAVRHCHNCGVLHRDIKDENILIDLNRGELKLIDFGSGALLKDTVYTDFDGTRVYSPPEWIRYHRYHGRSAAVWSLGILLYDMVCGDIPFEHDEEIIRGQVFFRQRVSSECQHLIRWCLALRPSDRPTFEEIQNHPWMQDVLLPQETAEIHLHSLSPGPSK
Chain of PIM-2 (Q9P1W9 whole entry): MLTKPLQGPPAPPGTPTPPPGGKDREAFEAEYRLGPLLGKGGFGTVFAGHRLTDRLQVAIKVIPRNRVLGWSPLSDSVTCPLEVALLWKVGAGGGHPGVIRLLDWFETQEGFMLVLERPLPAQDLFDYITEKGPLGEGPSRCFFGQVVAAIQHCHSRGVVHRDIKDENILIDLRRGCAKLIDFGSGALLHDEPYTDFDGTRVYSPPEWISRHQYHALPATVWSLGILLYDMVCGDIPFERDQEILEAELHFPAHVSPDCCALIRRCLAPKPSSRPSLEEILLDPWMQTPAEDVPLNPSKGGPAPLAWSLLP

For `CC(C)NCC1CCN(c2nn3c(-c4cccc(OC(F)(F)F)c4)nnc3c3c2N(C)CCO3)CC1` [Example 85, Isopropyl-{1-[6-methyl-3-(3-trifluoromethoxy-phenyl)-7,8-dihydro-6H-9-oxa-1,2,3a,4,6-pentaaza-cyclopenta[a]naphthalen-5-yl]-piperidin-4-ylmethyl}-amine], the values for the IC50 in assay [1] (setting [4]), in assay [2] and in assay [3] were less than 100 nM, 100 to 1000 nM and 100 to 1000 nM, respectively.
As to `CN1CCOc2c1c(N1CCC(CN)CC1)nn1c(-c3cccc(OC(F)(F)F)c3)nnc21` [Example 55, C-{1-[6-Methyl-3-(3-trifluoromethoxy-phenyl)-7,8-dihydro-6H-9-oxa-1,2,3a,4,6-pentaaza-cyclopenta[a]naphthalen-5-yl]-piperidin-4-yl}-methylamine], the concentration for half-maximal inhibition (IC50) in assay [1] (setting [4]) and in assay [2] was less than 100 nM each time.
Regarding `CN1CCOc2c1c(NC1CCOCC1)nn1c(-c3cccc(OC(F)(F)F)c3)nnc21` [Example 23, [6-Methyl-3-(3-trifluoromethoxy-phenyl)-7,8-dihydro-6H-9-oxa-1,2,3a,4,6-pentaaza-cyclopenta[a]naphthalen-5-yl]-(tetrahydro-pyran-4-yl)-amine], the results for the IC50 in assay [1] (setting [4]), in assay [2] and in assay [3] were less than 100 nM, 100 to 1000 nM and less than 100 nM, respectively.
Regarding `CN1CCOc2c1c(NCCc1cccnc1)nn1c(-c3cccc(OC(F)(F)F)c3)nnc21` [Example 26, [6-Methyl-3-(3-trifluoromethoxy-phenyl)-7,8-dihydro-6H-9-oxa-1,2,3a,4,6-pentaaza-cyclopenta[a]naphthalen-5-yl]-(2-pyridin-3-yl-ethyl)-amine], the 50% inhibitory concentration (IC50) in assay [2] and in assay [3] was 100 to 1000 nM throughout.
Take `CN1CCOc2c1c(NCC1CCC(O)CC1)nn1c(-c3cccc(OC(F)(F)F)c3)nnc21` (centres unmarked) [Example 43, 4-{[6-Methyl-3-(3-trifluoromethoxy-phenyl)-7,8-dihydro-6H-9-oxa-1,2,3a,4,6-pentaaza-cyclopenta[a]naphthalen-5-ylamino]-methyl}-cyclohexanol]: the IC50 in assay [1] (setting [4]) and in assay [2] was less than 100 nM each time.
Take `CN1CCN(C)c2c1c(NCc1ccc(F)cc1)nn1c(-c3ccc(O)cc3)nnc21` [Example 94, 4-[5-(4-Fluoro-benzylamino)-6,9-dimethyl-6,7,8,9-tetrahydro-1,2,3a,4,6,9-hexaaza-cyclopenta[a]naphthalen-3-yl]-phenol]: the values for the IC50 in assay [1], in assay [1] (setting [4]) and in assay [3] were 100 to 1000 nM, less than 100 nM and more than 1000 nM, respectively.
In the case of `CN1CCC(CNc2nn3c(-c4ccc5[nH]ccc5c4)nnc3c3c2N(C)CCO3)CC1` [Example 33, [3-(1H-Indol-5-yl)-6-methyl-7,8-dihydro-6H-9-oxa-1,2,3a,4,6-pentaaza-cyclopenta[a]naphthalen-5-yl]-(1-methyl-piperidin-4-ylmethyl)-amine], the concentration for half-maximal inhibition (IC50) is 100 to 1000 nM in assay [1] and more than 1000 nM in assay [3].
Take `CC(=O)N1CCN(CCNc2nn3c(-c4cccc(OC(F)(F)F)c4)nnc3c3c2OCCN3C)CC1` [Example 95, 1-(4-{2-[9-Methyl-3-(3-trifluoromethoxy-phenyl)-8,9-dihydro-7H-6-oxa-1,2,3a,4,9-pentaaza-cyclopenta[a]naphthalen-5-ylamino]-ethyl}-piperazin-1-yl)-ethanone]: the IC50 in assay [1] (setting [4]) and in assay [3] was more than 1000 nM in each case.
Take `COc1ccc(-c2nnc3c4c(c(NCC5CCN(C(=O)OC(C)(C)C)CC5)nn23)N(C)CCO4)cc1` [Example 51, 4-{[3-(4-Methoxy-phenyl)-6-methyl-7,8-dihydro-6H-9-oxa-1,2,3a,4,6-pentaaza-cyclopenta[a]naphthalen-5-ylamino]-methyl}-piperidine-1-carboxylic acid tert-butyl ester]: the IC50 in assay [1] (setting [4]) and in assay [3] was more than 1000 nM in each case.
Consider `CN1CCOc2c1c(N(C)[C@H]1CC[C@H](O)CC1)nn1c(-c3cccc(OC(F)(F)F)c3)nnc21` [Example 35, 4-{Methyl-[6-methyl-3-(3-trifluoromethoxy-phenyl)-7,8-dihydro-6H-9-oxa-1,2,3a,4,6-pentaaza-cyclopenta[a]naphthalen-5-yl]-amino}-cyclohexanol], for which the IC50 in assay [1] (setting [4]) and in assay [3] was less than 100 nM in each case.
Consider `CN1CCC(Nc2nn3c(-c4cccc(OC(F)(F)F)c4)nnc3c3c2OCCN3C)CC1` [Example 3, (1-Methyl-piperidin-4-yl)-[9-methyl-3-(3-trifluoromethoxy-phenyl)-8,9-dihydro-7H-6-oxa-1,2,3a,4,9-pentaaza-cyclopenta[a]naphthalen-5-yl]-amine], for which the concentration for half-maximal inhibition (IC50) in assay [1] is 100 to 1000 nM; in assay [3] it was more than 1000 nM.
On to `CN1CCOc2c(NCCN3CCN(S(C)(=O)=O)CC3)nn3c(-c4cccc(OC(F)(F)F)c4)nnc3c21` [Example 96, [2-(4-Methanesulfonyl-piperazin-1-yl)-ethyl]-[9-methyl-3-(3-trifluoromethoxy-phenyl)-8,9-dihydro-7H-6-oxa-1,2,3a,4,9-pentaaza-cyclopenta[a]naphthalen-5-yl]-amine], for which the results for the 50% inhibitory concentration (IC50) in assay [1] and in assay [3] were 100 to 1000 nM and more than 1000 nM, respectively.
As to `CN1CCOc2c(NCC34CCN(CC3)C4)nn3c(-c4cccc(OC(F)(F)F)c4)nnc3c21` [Example 53, (1-Aza-bicyclo[2.2.1]hept-4-ylmethyl)-[9-methyl-3-(3-trifluoromethoxy-phenyl)-8,9-dihydro-7H-6-oxa-1,2,3a,4,9-pentaaza-cyclopenta[a]naphthalen-5-yl]-amine], the IC50 in assay [1] is 100 to 1000 nM; in assay [3], more than 1000 nM.
Take `COc1ccc(-c2nnc3c4c(c(N5CCC(CNC(C)=O)CC5)nn23)N(C)CCO4)cc1` [Example 92, N-{1-[3-(4-Methoxy-phenyl)-6-methyl-7,8-dihydro-6H-9-oxa-1,2,3a,4,6-pentaaza-cyclopenta[a]naphthalen-5-yl]-piperidin-4-ylmeth I}-acetamide]: the IC50 in assay [1] (setting [4]) and in assay [3] was more than 1000 nM in each case.
As to `CN1CCC(CN(C)c2nn3c(-c4cccc(OC(F)(F)F)c4)nnc3c3c2OCCN3C)CC1` [Example 18, Methyl-(1-methyl-piperidin-4-ylmethyl)-[9-methyl-3-(3-trifluoromethoxy-phenyl)-8,9-dihydro-7H-6-oxa-1,2,3a,4,9-pentaaza-cyclopenta[a]naphthalen-5-yl]-amine], the IC50 in assay [1] (setting [4]) and in assay [3] was more than 1000 nM throughout.
As for `CCN1CCOc2c1c(NCC1CC1)nn1c(-c3cccc(OC(F)(F)F)c3)nnc21` [Example 11, Cyclopropylmethyl-[6-ethyl-3-(3-trifluoromethoxy-phenyl)-7,8-dihydro-6H-9-oxa-1,2,3a,4,6-pentaaza-cyclopenta[a]naphthalen-5-yl]-amine], the IC50 in assay [1] (setting [4]) was less than 100 nM; in assay [3] it was 100 to 1000 nM.
Take `CN1CCC(CNc2nn3c(-c4ccc(O)cc4)nnc3c3c2N(C)CCO3)CC1` [Example 84, 4-{6-Methyl-5-[(1-methyl-piperidin-4-ylmethyl)-amino]-7,8-dihydro-6H-9-oxa-1,2,3a,4,6-pentaaza-cyclopenta[a]naphthalen-3-yl}-phenol]: the IC50 was 100 to 1000 nM in assay [1] and more than 1000 nM in assay [3].
With `CN1CCOc2c(NCc3ccc(F)cc3)nn3c(-c4cccc(OC(F)(F)F)c4)nnc3c21` [Example 10, (4-Fluoro-benzyl)-[9-methyl-3-(3-trifluoromethoxy-phenyl)-8,9-dihydro-7H-6-oxa-1,2,3a,4,9-pentaaza-cyclopenta[a]naphthalen-5-yl]-amine], the concentration for half-maximal inhibition (IC50) in assay [1] (setting [4]) and in assay [3] was more than 1000 nM each time.
On to `CNC1CCN(c2nn3c(-c4cccc(OC(F)(F)F)c4)nnc3c3c2OCCN3C)CC1` [Example 44, Methyl-{1-[9-methyl-3-(3-trifluoromethoxy-phenyl)-8,9-dihydro-7H-6-oxa-1,2,3a,4,9-pentaaza-cyclopenta[a]naphthalen-5-yl]-piperidin-4-yl}-amine], for which the IC50 in assay [1] is 100 to 1000 nM; in assay [3] it was more than 1000 nM.
As for `CN1CCC(CNc2nn3c(-c4cccc(OC(F)(F)F)c4)nnc3c3c2N(C)C(C)(C)CO3)CC1` [Example 73, (1-Methyl-piperidin-4-ylmethyl)-[6,7,7-trimethyl-3-(3-trifluoromethoxy-phenyl)-7,8-dihydro-6H-9-oxa-1,2,3a,4,6-pentaaza-cyclopenta[a]naphthalen-5-yl]-amine], the IC50 in assay [1] (setting [4]) was less than 100 nM; in assay [3] it was 100 to 1000 nM.
With `CN1CCOc2c(N3CC4(CCNCC4)C3)nn3c(-c4cccc(OC(F)(F)F)c4)nnc3c21` [Example 83, 5-(2,7-Diaza-spiro[3.5]non-2-yl)-9-methyl-3-(3-trifluoromethoxy-phenyl)-8,9-dihydro-7H-6-oxa-1,2,3a,4,9-pentaaza-cyclopenta[a]naphthalene], the IC50 in assay [1] was 100 to 1000 nM; in assay [3], more than 1000 nM.
As to `CN1CCOc2c(NCCCO)nn3c(-c4cccc(OC(F)(F)F)c4)nnc3c21` [Example 22, 3-[9-Methyl-3-(3-trifluoromethoxy-phenyl)-8,9-dihydro-7H-6-oxa-1,2,3a,4,9-pentaaza-cyclopenta[a]naphthalen-5-ylamino]-propan-1-ol], the half-maximal inhibitory concentration (IC50) in assay [1] is 100 to 1000 nM; in assay [1] (read-out: PIM1 IC50), 678 nM; in assay [3] it was more than 1000 nM.
On to `FC(F)(F)Oc1cccc(-c2nnc3c4c(c(NCC5CC5)nn23)OCCO4)c1` [Example 102, Cyclopropylmethyl-[3-(3-trifluoromethoxy-phenyl)-7,8-dihydro-6,9-dioxa-1,2,3a,4-tetraaza-cyclopenta[a]naphthalen-5-yl]-amine], for which the 50% inhibitory concentration (IC50) in assay [1] (setting [4]) and in assay [3] was less than 100 nM each time.
With `COc1ccc(-c2nnc3c4c(c(NCCN5CCOCC5)nn23)N(C)CCO4)cc1` [Example 4, [3-(4-Methoxy-phenyl)-6-methyl-7,8-dihydro-6H-9-oxa-1,2,3a,4,6-pentaaza-cyclopenta[a]naphthalen-5-yl]-(2-morpholin-4-yl-ethyl)-amine], the results for the half-maximal inhibitory concentration (IC50) in assay [1], in assay [1] (read-out: PIM1 IC50) and in assay [3] were 100 to 1000 nM, 811 nM and more than 1000 nM, respectively.
